Article PMC5599463, “PK/PD studies on non-selective PDE inhibitors in rats using cAMP as a marker of pharmacological response” (Naunyn-Schmiedeberg's Archives of Pharmacology, 2017)
Read-outs that look alike come from different tables or passages of the source.

What was measured:
[1] = tested on: plasma cAMP concentration; design: method as in Tanahashi et al. [1999]; settings: ref Tanahashi et al. [1999]; cited from earlier work
[2] = Pharmacokinetics after i.v. administration to endotoxemic rats (compartmental modelling); format: in vivo, Male Wistar rats
Experimental: (§1) All compounds were directly dissolved in 0.9% sterile saline and used within 1 day of preparation. The animals were divided into five groups (n = 3–4). […] All injections (1 mL kg^−1) were given to the tail vein of the rat under isoflurane anaesthesia. […] Subsequently, samples were kept on ice and centrifuged for 10 min at 3000×g at 4 °C (EBA 12 R, Hettich, Germany). The individual plasma samples were harvested and stored at −80 °C until analysis.
Then, the samples were extracted with 3 mL of dichloromethane for 20 min on a shaker (VXR Vibrax, IKA, Germany). Subsequently, all tubes were centrifuged (2000×g, 15 min) and organic layers were transferred to new glass tubes and evaporated under gentle stream of nitrogen at 37 °C. Dry residues were dissolved in 100 μL of mobile phase and placed in the autosampler vials. The volume of injection was set to 50 μL. The HPLC system (LaChrom Elite, Merck-Hitachi, Darmstadt, Germany) consisted of an L-2130 pump, an L-2200 autosampler, an L-2450 diode array detector and an L-2350 column oven. EZChrome Elite v. 3.2 (Merck-Hitachi) software was used for data acquisition. The analysis was performed on a LiChrospher 100 RP-18 column (250 mm × 4 mm) with a particle size of 5 μm protected with a LiChroCART (4 mm × 4 mm) guard column (Merck, Germany). The mobile phase consisted of dioxan, acetonitrile and aqueous solution of acetic acid (pH = 3.0) mixed at the ratio of 6.5:6.5:87 (v/v/v), respectively, and pumped at a flow rate of 1.2 mL min^−1. Analytical wavelength was set to 275 nm and temperature of separation was 35 °C.
To this end, one- or two-compartment pharmacokinetic models with linear or Michaelis–Menten type saturable elimination from the central compartment were tested. Both dose levels in each case were simultaneously fitted to obtain a single set of parameters. The final pharmacokinetic models for PTX and (±)-LSF were selected on the basis of visual inspection of the fitting, examination of residuals, parameter precision, Akaike Information Criteria (AIC), Bayesian Information Criteria (BIC) and analysis of the correlation matrix. Pharmacokinetic analysis was performed using Phoenix WinNonlin v. 6.3 (Pharsight Corp, Certara, St. Louis, MO, USA).

TNF-α plasma levels = experiment: Plasma TNF-α levels in endotoxemic rats (ELISA); format: in vivo, Male Wistar rats; settings: both doses (40 and 80 mg kg^−1 i.v.) with LPS, 90 min, p < 0.05
Experimental: as §1
Plasma TNF-α levels were measured by rat TNF-α Quantikine ELISA kit (R&D Systems, Minneapolis, MN, USA) according to the manufacturer’s protocol. The limit of quantification was 12.5 pg mL^−1.
(§2) The peak cAMP and TNF-α plasma levels following administration of LPS alone or LPS simultaneously with both doses of each compound were compared using a one-way ANOVA and Tukey’s HSD post hoc test. The normality of data distribution was checked by Shapiro–Wilk test. The relationship between decimal logarithms of peak cAMP and TNF-α plasma concentrations was verified by least squares linear regression analysis. All statistical analyses were performed using Statistica v. 12 (StatSoft Inc., USA). The significance level p was set at 0.05.

[3] = tested on: cAMP levels in rat plasma; experiment: PK/PD (IDR model II) of plasma cAMP in LPS-challenged rats; format: in vivo, Male Wistar rats; settings: for cAMP levels in rat plasma after administration: 40 or 80 mg kg^−1 i.v. with LPS; for IC50: Rattus norvegicus
Experimental: as §1
The levels of cAMP in rat plasma were measured using the same HPLC system and a fluorescence detector (model FL-2485). The analysis was performed after incubation of plasma with 2-chloroacetaldehyde as a derivatization reagent in elevated temperature to form the fluorescing derivative—1,N^6-etheno-cAMP. To 100 μL of plasma (or plasma spiked with water standard solution of cAMP), 15 μL of 2 M 2-chloroacetaldehyde solution and 50 μL of 0.5 M acetate buffer (pH = 4.5) were added to a snap-cap tubes. Samples were then vortex-mixed (Reax top, Heidolph, Germany) for 20 s and incubated at 80 °C for 20 min. Thereafter, the reaction mixture was cooled on ice, the samples were centrifuged (3000×g, 10 min) and 100 μL of supernatants was placed in the autosampler vials. The volume of injection was 50 μL. The separation was performed at isocratic conditions at 35 °C using the mobile phase composed of 20 mM citric-phosphate buffer (pH = 3.2) and methanol mixed at the ratio of 91:9 (v/v) and pumped at a flow rate of 1.3 mL min^−1. The excitation and emission wavelengths were set to 280 and 420 nm, respectively. In these conditions, the retention time of 1,N^6-etheno-cAMP was 6 min.
Changes in plasma cAMP concentrations (CcAMP) over time following each compound administration may be described by the following equation:
1 dCcAMP/dt=kin−kout⋅It⋅CcAMP
3 It=1−Imax⋅Cp^γ/IC50^γ+Cp^γ
The second approach assumes that both compounds under investigation act with different potencies. Based on the results of the in vitro study, an additive interaction model was used (Eq. 4):
I max and γ in Eqs. (3) and (4) were fixed to 1 during fitting procedure.
as §2

[4] = tested on: plasma cAMP concentrations; design: method as in Cheng et al. [1997]; settings: ref Cheng et al. [1997], cited from earlier work; for plasma cAMP concentrations in mice: 10 mg kg^−1 p.o.; for cAMP levels in mice: 10 times higher dose than that of the PDE4 inhibitors (10 mg kg^−1 p.o.)
[5] = tested on: plasma cAMP concentrations; experiment: Plasma cAMP in rats with endotoxemia after i.p. theophylline (own unpublished data); format: in vivo; settings: i.p. 50 mg kg^−1, 0.5 h after administration
[6] = design: method as in Wyska et al. [2007]; settings: mice; ref Wyska et al. [2007]; cited from earlier work
[7] = target: T1, human recombinant PDE7A (hrPDE7A) (Homo sapiens, UniProt Q13946); experiment: PDE-Glo Phosphodiesterase Assay, hrPDE7A inhibition; format: biochemical; settings: for IC50: hrPDE7A, non-linear regression, in vitro
T1 construct: purchased SignalChem, Richmond, Canada
Experimental: (§3) Briefly, 1,5 μl of 1× PDE-Glo reaction buffer containing 10 mU of purified hrPDE4B or hrPDE7A (SignalChem, Richmond, Canada) was pipetted into 384-well plate wells (Thermo Scientific, USA). The tested compounds were dissolved in DMSO, and a serial dilution of the inhibitors was performed using 1× PDE-Glo reaction buffer. Then, 1 μL of diluted inhibitors and 2.5 μL of cAMP solution were added to each well. After 10 min of incubation in 30 °C, 2.5 μL of PDE-Glo™ Termination Buffer and 2.5 μL of PDE-Glo™ Detection Solution were added and the plate was incubated for 20 min at room temperature. Finally, 10 μL of Kinase-Glo® Reagent was pipetted to each well and after 10 min of incubation, the luminescence was measured using a microplate luminometer (POLARstar Omega, BMG LABTECH, Ortenberg, Germany). All data points are the average of two determinations.

[8] = target: T2, human recombinant PDE4B (hrPDE4B) (Homo sapiens, UniProt Q07343); experiment: PDE-Glo Phosphodiesterase Assay, hrPDE4B inhibition; format: biochemical; settings: non-linear regression, in vitro
T2 construct: purchased SignalChem, Richmond, Canada
Experimental: as §3, with “The” for “Briefly, 1,5 μl of 1× PDE-Glo reaction buffer containing 10 mU of purified hrPDE4B or hrPDE7A (SignalChem, Richmond, Canada) was pipetted into 384-well plate wells (Thermo Scientific, USA). The”

[9] = tested on: IL-12-induced murine T helper 1 (Th1) differentiation; design: method as in Bright et al. [1998]; settings: dose-dependent manner; ref Bright et al. [1998]; cited from earlier work
cAMP plasma levels = settings: cited from earlier work
[10] = Interaction indirect response model II, rats challenged with LPS, i.v., read-out: IC50 (plasma concentration producing 50% of maximum inhibition of cAMP kout), final estimate (CV%)
[11] = interaction IDR model II, endotoxemic rats, read-out: IC50 calculated using PK/PD model after conversion to

T2 sequence (Q07343 whole entry): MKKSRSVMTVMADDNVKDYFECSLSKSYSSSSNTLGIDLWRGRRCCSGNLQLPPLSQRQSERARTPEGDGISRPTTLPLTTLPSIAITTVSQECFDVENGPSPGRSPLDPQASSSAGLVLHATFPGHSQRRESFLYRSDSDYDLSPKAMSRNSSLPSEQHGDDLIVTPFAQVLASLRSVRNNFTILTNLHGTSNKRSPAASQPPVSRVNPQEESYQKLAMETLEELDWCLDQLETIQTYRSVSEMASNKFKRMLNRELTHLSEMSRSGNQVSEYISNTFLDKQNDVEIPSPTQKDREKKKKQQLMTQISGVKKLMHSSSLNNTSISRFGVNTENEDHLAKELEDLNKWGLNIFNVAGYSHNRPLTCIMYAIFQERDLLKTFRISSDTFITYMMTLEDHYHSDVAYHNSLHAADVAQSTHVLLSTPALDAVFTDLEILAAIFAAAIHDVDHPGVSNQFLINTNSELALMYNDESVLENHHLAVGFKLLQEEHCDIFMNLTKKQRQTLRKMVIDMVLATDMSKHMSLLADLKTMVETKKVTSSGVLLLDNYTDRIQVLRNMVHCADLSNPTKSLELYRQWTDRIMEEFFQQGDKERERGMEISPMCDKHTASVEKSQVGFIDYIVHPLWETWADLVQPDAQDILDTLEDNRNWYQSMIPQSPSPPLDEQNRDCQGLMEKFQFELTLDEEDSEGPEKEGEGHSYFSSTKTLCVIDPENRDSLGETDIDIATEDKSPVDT
T1 sequence (Q13946 whole entry): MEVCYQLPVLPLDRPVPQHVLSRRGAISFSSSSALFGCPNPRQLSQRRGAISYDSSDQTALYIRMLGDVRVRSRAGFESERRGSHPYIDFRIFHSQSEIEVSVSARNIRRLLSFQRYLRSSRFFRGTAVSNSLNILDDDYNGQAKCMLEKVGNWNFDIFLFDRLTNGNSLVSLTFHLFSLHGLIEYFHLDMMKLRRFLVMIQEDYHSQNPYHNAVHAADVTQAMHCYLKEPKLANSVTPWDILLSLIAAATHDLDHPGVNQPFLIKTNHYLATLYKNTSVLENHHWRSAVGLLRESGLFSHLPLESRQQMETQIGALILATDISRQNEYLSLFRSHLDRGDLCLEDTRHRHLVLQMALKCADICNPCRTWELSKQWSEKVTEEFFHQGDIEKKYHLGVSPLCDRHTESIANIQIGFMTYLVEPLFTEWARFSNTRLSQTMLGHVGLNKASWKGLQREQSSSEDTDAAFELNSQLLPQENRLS

Compound: CN(C(=O)CCCOc1ccc2[nH]c(=O)ccc2c1)C1CCCCC1 [cilostamide]
- plasma cAMP concentration in dogs [1]: no

Compound: CC(O)CCCCn1c(=O)c2c(ncn2C)n(C)c1=O (racemic) [(±)-LSF, (±)-1-(5-hydroxyhexyl)-3,7-dimethylpurine-2,6-dione]
- VLSF (volume of (±)-LSF compartment), final estimate (CV%) ([2]; (±)-LSF parent drug, i.v. 40 and 80 mg kg^−1, endotoxemic rats, one-compartment Michaelis-Menten model): 1.22 (3.44) L kg^−1
- Km ([2]; male, Wistar, rat, plasma, iv, (±)-LSF parent drug, i.v., endotoxemic rats, read-out: Km (drug concentration at which elimination rate is half-maximal), final estimate (CV%)): 6.02 µg/mL
- TNF-α concentrations in plasma of endotoxemic rats (TNF-α plasma levels): significant decrease
- cAMP levels in rat plasma after administration [3]: increase in cAMP levels in rat plasma in a dose-dependent manner
- lower in vivo IC50 value compared to PTX ([3]; PK/PD model, rats): approximately 20%
- IC50 [3, 10]: 3.43 µg/mL
- IC50 [3, 11]: 12.2 µM
- peak cAMP level in comparison with the group receiving LPS only ([3]; dose of 40 mg kg^−1 i.v. with LPS 1 mg kg^−1, p > 0.05): did not increase

Compound: COc1ccc(C2CNC(=O)NC2)cc1O[C@H]1C[C@@H]2CC[C@H]1C2 [CP-80,633]
- plasma cAMP concentrations in mice [4]: increased plasma cAMP concentrations

Compound: Cn1c(=O)c2[nH]cnc2n(C)c1=O [theophylline]
- plasma concentrations of cAMP [5]: 228.22 pmol/mL
- plasma levels of cAMP ([4]; mice, orally 100 mg kg^−1, 20 min post-dose): 296.9 pmol/mL

Compound: C[C@@H](O)CCCCn1c(=O)c2c(ncn2C)n(C)c1=O [R-(-)-LSF]
- Km [6]: 15.08 mg/L
- Vmax [6]: 2.33 mg/min/kg
- IC50 [7]: 266 µM
- IC50 [8]: 49.1 µM
- inhibition of IL-12-induced murine Th1 differentiation [9]: inhibited

Compound: C[C@H](O)CCCCn1c(=O)c2c(ncn2C)n(C)c1=O [S-(+)-LSF]
- IC50 [7]: 328 µM
- IC50 [8]: 52.5 µM

Compound: OCCN(CCO)c1nc(N2CCCCC2)c2nc(N(CCO)CCO)nc(N3CCCCC3)c2n1 [dipyridamole]
- cAMP levels in mice [4]: failed to alter cAMP levels significantly

Compound: COc1ccc2[nH]cc(CCNC(C)=O)c2c1 [melatonin]
- cAMP plasma levels in humans (cAMP plasma levels; administered orally, 1 h following administration, ref Zhdanova and Raz [1999]): significantly augmented

Compound: CC(=O)CCCCn1c(=O)c2c(ncn2C)n(C)c1=O [PTX, 1-(5-oxohexyl)-3,7-dimethylpurine-2,6-dione]
- IC50 [7]: > 500 µM
- activity as inhibitor of hrPDE7A ([7]; in vitro assay): ineffective
- half-life ([2]; male, Wistar, rat, plasma, iv, rats, i.v., read-out: elimination half-life (t0.5)): 16.4 min
- k el ([2]; male, Wistar, rat, plasma, iv, read-out: ke (rate constant for disappearance of parent compound), final estimate (CV%) (converted)): 0.000933 s⁻¹
- TNF-α concentrations in plasma of endotoxemic rats (TNF-α plasma levels): significant decrease
- cAMP plasma levels elevation compared to the placebo group (cAMP plasma levels; healthy subjects, i.v. infusion 300 mg in 1 h, measured 1 h from beginning of infusion, ref Kruuse et al. [2000]): approximately 50%
- cAMP levels in rat plasma after administration [3]: increase in cAMP levels in rat plasma in a dose-dependent manner
- IC50 [3, 10]: 4.48 µg/mL
- IC50 [3, 11]: 16.1 µM

Compound: CCOC(=O)C1=C[C@]2(CC)CCCN3CCc4c(n1c1ccccc41)[C@@H]32 [vinpocetine]
- cAMP levels in mice [4]: failed to alter cAMP levels significantly

Compound: CCCOc1ccccc1-c1nc2nn[nH]c2c(=O)[nH]1 [zaprinast]
- cAMP levels in mice [4]: failed to alter cAMP levels significantly

Compound: COc1ccc(C2CNC(=O)C2)cc1OC1CCCC1 (centres unmarked) [rolipram]
- plasma cAMP concentration in dogs [1]: elevated plasma cAMP concentration in dogs in a dose-dependent manner
- plasma cAMP concentrations in mice [4]: increased plasma cAMP concentrations

Compound: CC(=O)Nc1ccc(-c2c[nH]c(=O)cn2)cc1 [SKF-94,120]
- cAMP levels in mice [4]: failed to alter cAMP levels significantly

Compound: CCCSc1nc(N[C@@H]2C[C@H]2c2ccc(F)c(F)c2)c2nnn([C@@H]3C[C@H](OCCO)[C@@H](O)[C@H]3O)c2n1 [ticagrelor]
- levels of cAMP in treated patients (cAMP plasma levels; patients, ref Li et al. [2017]): Elevated levels of cAMP

Compound: CC(C)Cn1c(=O)n(C)c(=O)c2[nH]cnc21 [IBMX, 1-methyl-3-(2-methylpropyl)-7H–purine-2,6-dione]
- IC50 [7]: 77.7 µM
- IC50 [8]: 46.6 µM
